Patent US20240317727A1 (Duke University, priority 2018, published 2024)

Experiments:
[1] = tested on: C4/2 prostate cancer cells; assay: Mouse xenograft model of Prostate Cancer; format: in vivo; details: nude mice, 25 mg/kg every other day intraperitoneal, vs vehicle
Experimental: FIGS. 7A and 7B are graphs showing that the compounds of the disclosure inhibit tumor growth in a mouse xenograft model of Prostate Cancer. Nude mice were inoculated on their flank with one million C4/2 prostate cancer cells (n=20 mice). One week after inoculation, tumors were apparent and mice were then treated with either vehicle (n=10 mice) or Compound 0017 (n=10 mice) at 25 mg/kg every other day by intraperitoneal administration. On the indicated days after the start of vehicle or Compound 0017 administration, tumors were measured in situ with a caliper and tumor volume calculated in cubic millimeters (FIG. 7A). Simultaneously, mouse weight was determined (FIG. 7B). Error bars represent standard error of the mean. **=P<0.01 in accordance with one embodiment of the present disclosure.

EKVX = assay: NCI60 cell growth and viability: EKVX; format: cell-based; details: Non-Small Cell Lung Cancer, two days
COLO 205 = assay: NCI60 cell growth and viability: COLO 205; format: cell-based; details: COLO 205, Colon Cancer, two days
HCT-116 = assay: NCI60 cell growth and viability: HCT-116; format: cell-based; details: HCT-116, Colon Cancer, two days
SF-268 = assay: NCI60 cell growth and viability: SF-268; format: cell-based; details: SF-268, CNS Cancer, two days
TK-10 = assay: NCI60 cell growth and viability: TK-10; format: cell-based; details: TK-10, Renal Cancer, two days
[2] = Homo sapiens, 48 h, read-out: log10 [GI50 (M)] (converted)
[3] = Homo sapiens, 48 h, read-out: log10 [LC50 (M)] (converted)

**Q.** With `O=C(Nc1ccc(F)cc1)Nc1ccc(Cl)c([N+](=O)[O-])c1` [Compound 0017, 1-(4-chloro-3-nitrophenyl)-3-(4-fluorophenyl)urea] as the molecule, how does the mouse weight ([1]; FIG. 7B) read?
**A.** without impacting the weight

**Q.** And the “tumor growth (tumor volume)” value ([1]; C4-2 derived tumors, 21-day, FIG. 7A)?
**A.** inhibits the growth

**Q.** What about the GI50 (EKVX; [2]) of the same molecule?
**A.** 2.82e-06 M

**Q.** What about the CC50 (EKVX; [3]) of the same molecule?
**A.** 6.17e-05 M

**Q.** What about the “log10 [TGI (M)]” value (EKVX) of the same molecule?
**A.** −4.96 log10 M

**Q.** What about the “log10 [TGI (M)]” value (COLO 205) of the same molecule?
**A.** −5.20 log10 M

**Q.** And the GI50 (COLO 205; [2])?
**A.** 2.45e-06 M

**Q.** And the CC50 (COLO 205; [3])?
**A.** 3.47e-05 M

**Q.** What about the “log10 [TGI (M)]” value (HCT-116) of the same molecule?
**A.** −4.93 log10 M

**Q.** What about the GI50 (HCT-116; [2]) of the same molecule?
**A.** 3.09e-06 M

**Q.** What about the CC50 (HCT-116; [3]) of the same molecule?
**A.** 3.47e-05 M

**Q.** What about the GI50 (SF-268; [2]) of the same molecule?
**A.** 4.47e-06 M

**Q.** What about the CC50 (SF-268; [3]) of the same molecule?
**A.** 5.75e-05 M

**Q.** And the “log10 [TGI (M)]” value (SF-268)?
**A.** −4.76 log10 M

**Q.** What about the GI50 (TK-10; [2]) of the same molecule?
**A.** 4.07e-06 M

**Q.** What about the CC50 (TK-10; [3]) of the same molecule?
**A.** 6.92e-05 M

**Q.** And the “log10 [TGI (M)]” value (TK-10)?
**A.** −4.70 log10 M
